Results published in paper PMC8486872, “A rational blueprint for the design of chemically-controlled protein switches” (Nature Communications, 2021).
Values joined by “and” are separate entries in the source; they are usually repeats but may differ in a detail not shown here. Identical values can stand only once.

Key:
[1] = tested on: JAK/STAT pathway SEAP expression in HEK293T cells; test: CDH-GEMS receptor signaling SEAP assay; format: cell-based
Excerpt: To test modularity and performance robustness of the CDHs in different molecular contexts, we inserted these modules in the generalizable extracellular molecule sensor (GEMS) receptor signaling pathway platform[24] and built CDH-GEMS. In these constructs the CDHs are localized extracellularly and function as ectodomain switches, fused to the backbone of the erythropoietin receptor, and an intracellular interleukin 6 receptor domain which activates the JAK/STAT pathway (Fig. 3d). The CDH-GEMS trigger the activation of the JAK/STAT pathway by the dimerization of their subunits. Thus, the drugs are expected to split the CDHs inactivating the signaling pathway as assessed by the expression of the reporter protein SEAP. All three CDH-GEMS were responsive to their respective drugs dynamic response range varied from approximately 6-fold (CDH-2) to 8-fold (CDH-1,3) (Fig. 3e). […] The CDH-GEMS were also reversible upon intermittent drug treatment (Supplementary Fig. 7h, i). Despite that comparisons between CDH-TFs and CDH-GEMS are not straightforward due to differences in the reporter signaling pathways, we observe a general trend for the CDHs to present lower IC50s when used as extracellular modules, which is consistent with overcoming drug permeability issues in cells.
HEK293T cells were maintained in DMEM medium with 10% FBS (Gibco) and Pen/Strep (Thermo Fisher). Cells were maintained and split every two days at around 80% confluence. HEK293T cells were seeded 24 h before transfection, and transfected with the lipofectamine 3000 kit (Thermo Fisher). Plasmids were cotransfected according to the Table S7. For the drug OFF-switch experiments, drugs were added 12 h post transfection and incubated with cells for 24 h before the SEAP detection assay.
Secreted alkaline phosphatase (SEAP) activity (U/L) in cell culture supernatants was quantified by kinetic measurements at 405 nm (1 min/measurement for 30 cycles) of absorbance increase due to phosphatase-mediated hydrolysis of para-nitrophenyl phosphate (pNPP).
Apparent IC50s of SPR drug competition assay were calculated using three-parameter nonlinear regression in GraphPad Prism (Version 8.3.0). Representative data of cellular assays are presented as individual values and mean values (bars). n = 3 refers to biological replicates. All IC50/EC50 values of cellular assays (CDH-TF, CDH-GEMS, AIR-TF and AIR-GEMS) reported were calculated using four-parameter nonlinear regression ± s.d.
Supplementary Figure 9: Comparison of ON-state reporter expression of weak affinity variants of LD3 in CDH-1/2-GEMS platform. a) ON-state expression of CDH-1-GEMS with LD3 and LD3_v3. b) Drug dose-dependent responses in engineered cells determined for the CDH-1-GEMS with LD3 and LD3_v3. c) ON-state expression of CDH-2-GEMS with LD3 and LD3_v3. d) Drug dose-dependent responses in engineered cells determined for the CDH-2-GEMS with LD3 and LD3_v3. In the data shown HEK293T cells were […]
quantification was done 24 hours after drug treatment. a, c) The bar charts show the mean ± s.d. of n = 3 biologically independent samples overlaid with a scatter dot plot of the original data points. b, d) Each […]
parameter nonlinear regression.
(1 picture or pasted object on this page, not shown here)

[2] = tested on: Bcl-XL:LD3 complex (CDH-1); test: SPR drug competition assay, Bcl-XL:LD3 (CDH-1) with Drug-1; format: binding; settings: Fig S10d
Protocol: Drug IC50s of disrupting CDH heterodimers were measured on a Biacore 8 K device. 4 µM of LD3 and its variants (LD3_v1-3) or LD6 were mixed with their respective drugs. […] Multiple-cycle injection of the protein-drug complex with different stoichiometry were performed to measure the decrease of maximal RUs (response units at 120 sec). Apparent IC50s were obtained using the inhibition versus response fitting models in prism software (Version 8.3.0).
Apparent IC50s of SPR drug competition assay were calculated using three-parameter nonlinear regression in GraphPad Prism (Version 8.3.0). Representative data of cellular assays are presented as individual values and mean values (bars). n = 3 refers to biological replicates. All IC50/EC50 values of cellular assays (CDH-TF, CDH-GEMS, AIR-TF and AIR-GEMS) reported were calculated using four-parameter nonlinear regression ± s.d. […]
Readouts from the
sensorgrams were extracted at the time point 120 s to calculate the IC50s using a three-parameter

[3] = tested on: JAK/STAT pathway SEAP expression in HEK293T cells; test: AIR-GEMS ON-switch SEAP assay; settings: Homo sapiens, HEK-293T, read-out: EC50, AIR-2-GEMS activation by Drug-2
Excerpt: We fused the AIR components in the ectodomains of the GEMS and measured SEAP activity as a reporter for drug-triggered activation.
Bcl2 mutants were cloned into the AIR-GEMS

In the case of `CN(C)CC#Cc1ccc(OCCCc2sc(N3CCc4cccc(C(=O)Nc5nc6ccccc6s5)c4C3)nc2C(=O)O)c(F)c1` [Drug-1, A-1155463], the SEAP % ([1]; Suppl Fig 9b, BclxL:LD3, 0.001 nM) is reported as 18.0122% and 17.4443% and 16.8298%, the SEAP % ([1]; Suppl Fig 9b, BclxL:LD3, 0.005 nM) is reported as 16.6899% and 17.1312% and 17.1781% and the SEAP % ([1]; Suppl Fig 9b, BclxL:LD3, 0.01 nM) is reported as 17.4444% and 15.5469% and 16.1047%. The SEAP % ([1]; Suppl Fig 9b, BclxL:LD3, 0.05 nM) was 15.1537% and 15.6285% and 14.5618%, the SEAP % ([1]; Suppl Fig 9b, BclxL:LD3, 0.1 nM) was 14.6667% and 14.1653% and 14.4377% and the SEAP % ([1]; Suppl Fig 9b, BclxL:LD3, 0.5 nM) was 13.4918% and 13.7573% and 13.7645%. The SEAP % ([1]; Suppl Fig 9b, BclxL:LD3, 1 nM) was 11.4623% and 11.7897% and 11.4884%, the SEAP % ([1]; Suppl Fig 9b, BclxL:LD3, 5 nM) was 7.87% and 8.2239% and 7.705% and the SEAP % ([1]; Suppl Fig 9b, BclxL:LD3, 10 nM) was 5.487% and 5.0968% and 5.0693%. The SEAP % ([1]; Suppl Fig 9b, BclxL:LD3, 50 nM) was 4.04% and 4.459% and 3.462%, the SEAP % ([1]; Suppl Fig 9b, BclxL:LD3, 100 nM) was 4.1212% and 3.83% and 3.424% and the SEAP % ([1]; Suppl Fig 9b, BclxL:LD3, 500 nM) was 3.2684% and 3.043% and 3.776%. The SEAP % ([1]; Suppl Fig 9b, BclxL:LD3, 1000 nM) was 3.47% and 3.522% and 3.463%, the SEAP % ([1]; Suppl Fig 9b, BclxL:LD3_v3, 0.001 nM) was 16.3076% and 17.437% and 16.859% and the SEAP % ([1]; Suppl Fig 9b, BclxL:LD3_v3, 0.005 nM) was 14.9031% and 15.6748% and 15.9103%. The SEAP % ([1]; Suppl Fig 9b, BclxL:LD3_v3, 0.01 nM) was 13.8744% and 14.7636% and 15.1685%, the SEAP % ([1]; Suppl Fig 9b, BclxL:LD3_v3, 0.05 nM) was 12.8457% and 12.494% and 13.0699% and the SEAP % ([1]; Suppl Fig 9b, BclxL:LD3_v3, 0.1 nM) was 9.936% and 9.732% and 9.834%. The SEAP % ([1]; Suppl Fig 9b, BclxL:LD3_v3, 0.5 nM) was 8.327% and 7.455% and 7.64%, the SEAP % ([1]; Suppl Fig 9b, BclxL:LD3_v3, 1 nM) was 9.561% and 8.788% and 8.726% and the SEAP % ([1]; Suppl Fig 9b, BclxL:LD3_v3, 5 nM) was 4.582% and 4.8104% and 5.942%. For the same molecule, the SEAP % ([1]; Suppl Fig 9b, BclxL:LD3_v3, 10 nM) was 4.563% and 3.586% and 4.47%, the SEAP % ([1]; Suppl Fig 9b, BclxL:LD3_v3, 50 nM) was 5.174% and 5.025% and 4.8595% and the SEAP % ([1]; Suppl Fig 9b, BclxL:LD3_v3, 100 nM) was 4.401% and 4.122% and 4.248%. For the same molecule, the SEAP % ([1]; Suppl Fig 9b, BclxL:LD3_v3, 500 nM) was 4.318% and 3.762% and 3.577%, the SEAP % ([1]; Suppl Fig 9b, BclxL:LD3_v3, 1000 nM) was 4.822% and 4.215% and 3.859% and the IC50 ([2]; Bcl-Xl:LD3, best-fit, inhibitor vs. response (three parameters)) was 220 pM. For the same molecule, the logIC50 ([2]; Bcl-Xl:LD3, best-fit, three parameters, Drug-1 in nM) was -0.658, the “Bcl-Xl:LD3 response” value ([2]; Drug-1 0.001 nM) was 275.326 and 251.306 and 243.642 and the “Bcl-Xl:LD3 response” value ([2]; Drug-1 0.005 nM) was 242.985 and 229.287 and 224.833. The “Bcl-Xl:LD3 response” value ([2]; Drug-1 0.01 nM) was 223.576 and 215.113 and 215.946, the “Bcl-Xl:LD3 response” value ([2]; Drug-1 0.05 nM) was 225.211 and 226.402 and 224.55 and the “Bcl-Xl:LD3 response” value ([2]; Drug-1 0.1 nM) was 186.039 and 182.298 and 182.078. For the same molecule, the “Bcl-Xl:LD3 response” value ([2]; Drug-1 0.5 nM) was 123.883 and 120.417 and 119.693, the “Bcl-Xl:LD3 response” value ([2]; Drug-1 1 nM) was 121.627 and 115.582 and 111.718 and the “Bcl-Xl:LD3 response” value ([2]; Drug-1 5 nM) was 122.215 and 115.477 and 118.457. The “Bcl-Xl:LD3 response” value ([2]; Drug-1 10 nM) was 92.0281 and 92.2496 and 88.1833, the “Bcl-Xl:LD3 response” value ([2]; Drug-1 50 nM) was 84.1354 and 86.416 and 84.392 and the “Bcl-Xl:LD3 response” value ([2]; Drug-1 100 nM) was 81.6073 and 77.884 and 79.2329. For the same molecule, the “Bcl-Xl:LD3 response” value ([2]; Drug-1 500 nM) was 65.1408 and 62.8874 and 62.5965 and the “Bcl-Xl:LD3 response” value ([2]; Drug-1 1000 nM) was 42.6601 and 38.7292 and 40.0074.

In the case of `CC1(C)CCC(CN2CCN(c3ccc(C(=O)NS(=O)(=O)c4ccc(NCC5CCOCC5)c([N+](=O)[O-])c4)c(Oc4cnc5[nH]ccc5c4)c3)CC2)=C(c2ccc(Cl)cc2)C1` [Drug-2, Venetoclax], the SEAP % ([1]; Suppl Fig 9d, Bcl2:LD3, 0.001 nM) is reported as 300.653% and 318.178% and 392.457%, the SEAP % ([1]; Suppl Fig 9d, Bcl2:LD3, 0.01 nM) is reported as 308.454% and 345.509% and 340.557% and the SEAP % ([1]; Suppl Fig 9d, Bcl2:LD3, 0.1 nM) is reported as 274.777% and 330.791% and 315.073%. The SEAP % ([1]; Suppl Fig 9d, Bcl2:LD3, 1 nM) was 266.802% and 312.808% and 313.179%, the SEAP % ([1]; Suppl Fig 9d, Bcl2:LD3, 10 nM) was 230.526% and 261.334% and 264.64% and the SEAP % ([1]; Suppl Fig 9d, Bcl2:LD3, 50 nM) was 182.557% and 182.048% and 191.603%. For the same molecule, the SEAP % ([1]; Suppl Fig 9d, Bcl2:LD3, 100 nM) was 137.415% and 148.555% and 171.413%, the SEAP % ([1]; Suppl Fig 9d, Bcl2:LD3, 500 nM) was 103.855% and 121.158% and 118.471% and the SEAP % ([1]; Suppl Fig 9d, Bcl2:LD3, 1000 nM) was 85.4687% and 78.7046% and 88.4921%. For the same molecule, the SEAP % ([1]; Suppl Fig 9d, Bcl2:LD3_v3, 0.001 nM) was 435.755% and 579.505% and 634.353%, the SEAP % ([1]; Suppl Fig 9d, Bcl2:LD3_v3, 0.01 nM) was 426.219% and 513.058% and 543.118% and the SEAP % ([1]; Suppl Fig 9d, Bcl2:LD3_v3, 0.1 nM) was 389.885% and 497.895% and 507.442%. The SEAP % ([1]; Suppl Fig 9d, Bcl2:LD3_v3, 1 nM) was 349.489% and 416.083% and 425.558%, the SEAP % ([1]; Suppl Fig 9d, Bcl2:LD3_v3, 10 nM) was 179.661% and 237.904% and 242.508% and the SEAP % ([1]; Suppl Fig 9d, Bcl2:LD3_v3, 50 nM) was 112.482% and 132.539% and 150.605%. The SEAP % ([1]; Suppl Fig 9d, Bcl2:LD3_v3, 100 nM) was 97.6884% and 119.034% and 118.118%, the SEAP % ([1]; Suppl Fig 9d, Bcl2:LD3_v3, 500 nM) was 69.1684% and 95.9179% and 92.604% and the SEAP % ([1]; Suppl Fig 9d, Bcl2:LD3_v3, 1000 nM) was 52.9029% and 66.0602% and 70.7894%. It also gave an EC50 [3] of 500 pM.
